Assay results from patent US11987568B2, “Allosteric inhibitor of WEE1 kinase” (H. LEE MOFFITT CANCER CENTER AND RESEARCH INSTITUTE, INC., priority 2018, dated 2024).
“And” between values parts separate entries of the source, which are not always exact repeats. Equal values may be shown once.

Legend:
LAPC4 cells = assay: LAPC4 cell proliferation, trypan blue exclusion assay; format: cell-based; conditions: Homo sapiens, 96 hr, viable cells by trypan blue exclusion
Description: FIGS. 2A-2B show identification of 3 distinct types of inhibitors. […] In addition, the lysates were also subjected to by immunoblotting with […]-Cdc2 or actin antibodies (middle and bottom panels). […] The number vehicle treated cells were used as control and percent of surviving cells were plotted. […] The number of vehicle treated cells were used as control and percent of surviving cells were plotted. […] The number vehicle treated cells were used as control and percent of surviving cells were plotted. 7 of these epigenetic inhibitors in various assays such as cell proliferation assay, an in vitro kinase assay were performed and WEE1 autophosphorylation in vivo was determined. Prostate cancer derived LAPC4 cells were treated with inhibitors and its effect on cell proliferation was examined.

[1] = test system: histone H2B Tyr37-phopshorylation (pY37-H2B); assay: WEE1 epigenetic activity in cells: pY37-H2B immunoprecipitation/immunoblot; format: cell-based, human; conditions: LNCaP cells
Description: FIGS. 2A-2B show identification of 3 distinct types of inhibitors. […] In addition, the lysates were also subjected to by immunoblotting with pY15-Cdc2 or actin antibodies (middle and bottom panels). […] The number vehicle treated cells were used as control and percent of surviving cells were plotted.
FIGS. 4A-4B show structures of ‘hits’ identified in WEE1 epigenetic inhibitor screen. […] The reaction mix was then subjected to immunoprecipitated with WEE1 antibodies, followed by immunoblotting with pTyr antibodies. […] In addition, the lysates were also subjected to immunoblotting with actin antibodies (bottom panel).
FIGS. 7A-7C show identification of WEIN-159 as a potent WEE1 epigenetic inhibitor. […] In addition, lysates were immunoprecipitated with pY37-H2B antibodies, followed by immunoblotting with H2B antibodies (middle panel). […] The lysates were also subjected to immunoblotting with pY15-Cdc2 antibodies and were immunoprecipitated with pY37-H2B antibodies, followed by immunoblotting with H2B antibodies (middle panels). In addition, the lysates were also subjected to immunoblotting with H2B antibodies (bottom panel). […] The lysates were also subjected to immunoblotting with pY15-Cdc2 antibodies and were immunoprecipitated with pY37-H2B antibodies, followed by immunoblotting with H2B antibodies (middle panels). In addition, the lysates were also subjected to immunoblotting with actin antibodies (bottom panel).
Identification of compounds with WEE1 epigenetic inhibitory role: 14 ‘hits’ that were identified in the screen are shown in FIG. 1. These compounds were further tested for their ability to inhibit WEE1 epigenetic activity. Prostate cancer derived LNCaP cells were treated with 3 uM of compounds for 48 hours. Cells were harvested, lysates were prepared, and WEE1 epigenetic activity was detected by determining histone H2B Tyr37-phopshorylation (pY37-H2B). Lysates were also assessed for WEE1 cell cycle inhibitory activity by determining Cdc2 Tyr15-phosphorylation (pY15-Cdc2). […] These are named as ‘Cell Cycle’ inhibitors. […] These compounds are the ‘Epigenetic’ inhibitors.

[2] = test system: Cdc2 Tyr15-phosphorylation (pY15-Cdc2); assay: WEE1 cell cycle inhibitory activity in cells: pY15-Cdc2 immunoblot; format: cell-based, human; conditions: LNCaP cells
Description: FIGS. 2A-2B show identification of 3 distinct types of inhibitors. […] In addition, the lysates were also subjected to by immunoblotting with […]-Cdc2 or actin antibodies (middle and bottom panels). […] The number vehicle treated cells were used as control and percent of surviving cells were plotted. […] In addition, the lysates were also subjected to immunoblotting with actin antibodies (bottom panel). Identification of compounds with WEE1 epigenetic inhibitory role: 14 'hits' that were identified in the screen are shown in FIG. 1. These compounds were further tested for their ability to inhibit WEE1 epigenetic activity. Prostate cancer derived LNCaP cells were treated with 3 uM of compounds for 48 hours. […] Lysates were also assessed for WEE1 cell cycle inhibitory activity by determining Cdc2 Tyr15-phosphorylation ([…]-Cdc2). […] These are named as 'Cell Cycle' inhibitors. […] These compounds are the 'Epigenetic' inhibitors.

gamma-H2AX = assay: DNA damage, gamma-H2AX immunoblot in LNCaP cells; format: cell-based, human; conditions: 3 μM, 12 hours (FIG. 3C)
Description: The reaction mix was then subjected to immunoprecipitated with WEE1 antibodies, followed by immunoblotting with pTyr antibodies (top panel). As a control, purified ACK1 protein was incubated in the reaction buffer containing ATP, in presence of 100 nM epigenetic inhibitors. The reaction mix was then subjected to immunoprecipitated with ACK1 antibodies, followed by immunoblotting with pTyr antibodies (bottom panel). […] In addition, the lysates were also subjected to immunoblotting with actin antibodies (bottom panel). […] In addition, the lysates were also subjected to immunoblotting with actin antibodies (bottom panel).
H2AX becomes phosphorylated on serine 139, called gamma-H2AX, is a marker of DNA damage as it localizes to sites of DNA strand breaks. This sensor then functions to trigger activation of the DNA damage response pathways. To assess whether any of the epigenetic inhibitors are potent DNA-damaging agents, cells were treated with the compounds followed by immunoblotting with gamma-H2AX antibodies.

Wee1 KD = target: T1, Wee1 KD (Homo sapiens, UniProt P30291); assay: Differential Scanning Fluorimetry (DSF), Wee1 KD; format: binding; conditions: kinase domain purified from HEK293T cells
T1 construct: WEE1 & WEE2 (as control) kinase domains from mammalian cells (HEK293T cells) were purified
Description: (§1) Binding study of WEE1 epigenetic inhibitors: To identify the precise binding region/domain of WEE1 epigenetic inhibitors, WEE1 & WEE2 (as control) kinase domains from mammalian cells (HEK293T cells) were purified. The binding of inhibitors was assessed using Differential Scanning Fluorimetry (DSF).

Wee2 KD = target: T2, Wee2 KD (Homo sapiens, UniProt P0C1S8); assay: Differential Scanning Fluorimetry (DSF), Wee2 KD; format: binding; conditions: kinase domain purified from HEK293T cells
T2 construct: WEE1 & WEE2 (as control) kinase domains from mammalian cells (HEK293T cells) were purified
Description: as §1

LNCaP cells = assay: Cell cycle analysis by propidium iodide staining; format: cell-based, human; conditions: 16 hours
Description: To further validate this observation, LNCaP cells were treated with WEIN-159 and 172 for 16 hours and cell cycle analysis was performed by propidium iodide staining.

[3] = target: full length human WEE1 kinase (Homo sapiens, UniProt P30291); assay: ELISA based assay: WEE1 phosphorylation of biotinylated H2B peptide spanning Tyr37; format: biochemical; set-up: A full length human WEE1 kinase that was enzymatically active was purified from insect cell; ELISA assay % Inhibition: concentration or dose not given beside the values; conditions: for ELISA Inhibition (%): Table 1, several values in a cell are repeat determinations
Description: Designing of a Novel inhibitor Screening Platform: […] A full length human WEE1 kinase that was enzymatically active was purified from insect cell. […] NCI diversity set compound library ( 1600 compounds) was used for the screening.

full length human WEE1 kinase, sequence (P30291 whole entry): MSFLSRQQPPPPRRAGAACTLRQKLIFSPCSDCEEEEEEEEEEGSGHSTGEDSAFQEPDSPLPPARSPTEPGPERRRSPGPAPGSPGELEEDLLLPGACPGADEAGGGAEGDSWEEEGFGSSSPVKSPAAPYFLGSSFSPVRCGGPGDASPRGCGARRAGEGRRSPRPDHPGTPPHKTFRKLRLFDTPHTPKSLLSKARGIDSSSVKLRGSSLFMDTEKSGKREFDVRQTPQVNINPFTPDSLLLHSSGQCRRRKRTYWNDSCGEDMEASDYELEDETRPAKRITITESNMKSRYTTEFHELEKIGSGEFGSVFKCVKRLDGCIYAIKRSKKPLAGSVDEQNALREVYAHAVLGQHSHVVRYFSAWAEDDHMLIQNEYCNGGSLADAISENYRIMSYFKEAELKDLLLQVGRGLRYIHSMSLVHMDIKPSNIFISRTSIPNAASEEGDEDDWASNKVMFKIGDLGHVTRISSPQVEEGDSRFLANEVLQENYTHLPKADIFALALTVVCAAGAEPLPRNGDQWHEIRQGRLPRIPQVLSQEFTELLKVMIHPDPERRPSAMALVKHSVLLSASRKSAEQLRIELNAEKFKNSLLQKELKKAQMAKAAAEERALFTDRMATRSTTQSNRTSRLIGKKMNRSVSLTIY
T2 sequence (P0C1S8 212-486): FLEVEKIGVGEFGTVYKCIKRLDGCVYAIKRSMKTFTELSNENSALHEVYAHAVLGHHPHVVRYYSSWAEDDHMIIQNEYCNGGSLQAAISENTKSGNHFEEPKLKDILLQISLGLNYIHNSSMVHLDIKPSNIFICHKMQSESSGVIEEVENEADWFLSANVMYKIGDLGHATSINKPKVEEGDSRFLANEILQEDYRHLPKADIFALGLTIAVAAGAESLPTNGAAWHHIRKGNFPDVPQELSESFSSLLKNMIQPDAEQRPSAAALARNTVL
T1 sequence (P30291 299-569): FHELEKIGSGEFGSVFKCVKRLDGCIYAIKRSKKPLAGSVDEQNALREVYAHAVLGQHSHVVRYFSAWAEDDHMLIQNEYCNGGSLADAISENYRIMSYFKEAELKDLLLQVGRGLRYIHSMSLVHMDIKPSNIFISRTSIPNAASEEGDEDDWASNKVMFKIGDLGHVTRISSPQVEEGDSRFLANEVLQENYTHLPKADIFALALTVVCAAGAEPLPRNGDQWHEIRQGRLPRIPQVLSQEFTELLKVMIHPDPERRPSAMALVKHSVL

ELISA Inhibition (%) [3] | Compound | other results
20% | Cl.Nc1ccc(NC(=O)C2CCC(C(=O)Nc3ccc(N)c(F)c3)CC2)cc1F (stereo not shown) [SG5-147-4] | –
2% | Cc1cc(C(=O)Nc2ccc(N)c(Cl)c2)c(C)cc1C(=O)Nc1ccc(N)c(Cl)c1.Cl [SG5-147-5] | –
13% | Cl.Nc1ccc(NC(=O)c2ccc(C(=O)Nc3ccc(N)c(Cl)c3)o2)cc1Cl [SG5-147-6] | –
17% | Cl.Nc1ccc(NC(=O)C2CCC(C(=O)Nc3ccc(N)c(Cl)c3)CC2)cc1Cl (stereo not shown) [SG5-147-8] | –
9% | Cc1cc(C(=O)Nc2ccc(CN)cc2)c(C)cc1C(=O)Nc1ccc(CN)cc1.Cl [SG5-147-9] | –
4% | Cl.NCc1ccc(NC(=O)c2ccc(C(=O)Nc3ccc(CN)cc3)o2)cc1 [SG5-147-10] | –
−9% | Cl.NCc1ccc(NC(=O)C2CCC(C(=O)Nc3ccc(CN)cc3)CC2)cc1 (stereo not shown) [SG5-147-12] | –
12% | Cc1cc(C(=O)NCc2ccc(N)cc2)c(C)cc1C(=O)NCc1ccc(N)cc1.Cl [SG5-147-13] | –
−16% | Cl.Nc1ccc(CNC(=O)c2ccc(C(=O)NCc3ccc(N)cc3)o2)cc1 [SG5-147-14] | –
−14% | Cl.Nc1ccc(CNC(=O)C2CCC(C(=O)NCc3ccc(N)cc3)CC2)cc1 (stereo not shown) [SG5-147-16] | –
21% | Cc1cc(C(=O)NC2CCNCC2)c(C)cc1C(=O)NC1CCNCC1.Cl [SG5-147-17] | –
−5% | Cl.O=C(NC1CCNCC1)c1ccc(C(=O)NC2CCNCC2)o1 [SG5-147-18] | –
22% | Cl.O=C(NC1CCNCC1)C1CCC(C(=O)NC2CCNCC2)CC1 (stereo not shown) [SG5-147-20] | –

More lines, now with the values behind:

Compound | ELISA Inhibition (%) [3] | other results
C=CCn1c(=O)c2cnc(Nc3ccc(N4CCN(C)CC4)cc3)nc2n1-c1cccc(C(C)(C)O)n1 [AZD-1775, reference compound] | – | IC50 (LAPC4 cells): 0.35 µM; H2B Tyr37-phosphorylation (pY37-H2B) ([1]; 3 uM, 48 hours (FIG. 2A)): loss of both H2B and Cdc2-phosphorylation; Cdc2 Tyr15-phosphorylation (pY15-Cdc2) ([2]; 3 uM, 48 hours (FIG. 2A)): loss of both H2B and Cdc2-phosphorylation; DNA damage (gamma-H2AX) (gamma-H2AX): intensified double-strand DNA breakage; ΔTm for Wee1 KD (° C.) (Wee1 KD): 16.2 °C; ΔTm for Wee2 KD (° C.) (Wee2 KD): 11.9 °C; Cell Cycle Analysis G1 (LNCaP cells): 56.51; Cell Cycle Analysis G2/M (LNCaP cells): 4.27; Cell Cycle Analysis S (LNCaP cells): 39.22; ELISA assay % Inhibition ([3]; Table 3, No peptide = 100, No inhibitor = 0): 54%
Nc1ccc(NC(=O)c2ccc(C(=O)Nc3ccc(N)cc3)o2)cc1 [SG5-111, N^2,N^5-bis(4-aminophenyl)furan-2,5-dicarboxamide] | 46% and 55% | H2B Tyr37-phopshorylation ([1]; 10 μM, 24 hours (FIG. 7A)): almost complete loss of H2B Tyr37-phopshorylation; Cdc Tyr-phopshorylation ([2]; 10 μM, 24 hours (FIG. 7A)): unaffected
CC(C)(C)OC(=O)Nc1ccc(NC(=O)C2CCC(C(=O)Nc3ccc(NC(=O)OC(C)(C)C)c(Cl)c3)CC2)cc1Cl (stereo not shown) [SG5-140-8] | 25% | –
Cc1cc(C(=O)Nc2ccc(CNC(=O)OC(C)(C)C)cc2)c(C)cc1C(=O)Nc1ccc(CNC(=O)OC(C)(C)C)cc1 [SG5-140-9] | 18% | –
CC(C)(C)OC(=O)NCc1ccc(NC(=O)c2ccc(C(=O)Nc3ccc(CNC(=O)OC(C)(C)C)cc3)o2)cc1 [SG5-140-10] | 13% | –
CC(C)(C)OC(=O)NCc1ccc(NC(=O)c2ccc(C(=O)Nc3ccc(CNC(=O)OC(C)(C)C)cc3)nc2)cc1 [SG5-140-11, Di-tert-butyl ((((pyridine-2,5-dicarbonyl)bis(azanediyl))bis(4,1-phenylene))bis(methylene))dicarbamate] | −6% | –
CC(C)(C)OC(=O)NCc1ccc(NC(=O)C2CCC(C(=O)Nc3ccc(CNC(=O)OC(C)(C)C)cc3)CC2)cc1 (stereo not shown) [SG5-140-12] | 4% | –
Cc1cc(C(=O)NCc2ccc(NC(=O)OC(C)(C)C)cc2)c(C)cc1C(=O)NCc1ccc(NC(=O)OC(C)(C)C)cc1 [SG5-140-13] | −4% | –
CC(C)(C)OC(=O)Nc1ccc(CNC(=O)c2ccc(C(=O)NCc3ccc(NC(=O)OC(C)(C)C)cc3)o2)cc1 [SG5-140-14] | −4% | –
CC(C)(C)OC(=O)Nc1ccc(CNC(=O)c2ccc(C(=O)NCc3ccc(NC(=O)OC(C)(C)C)cc3)nc2)cc1 [SG5-140-15] | 12% | –
CC(C)(C)OC(=O)Nc1ccc(CNC(=O)C2CCC(C(=O)NCc3ccc(NC(=O)OC(C)(C)C)cc3)CC2)cc1 (stereo not shown) [SG5-140-16] | 8% | –
Cc1cc(C(=O)NC2CCN(C(=O)OC(C)(C)C)CC2)c(C)cc1C(=O)NC1CCN(C(=O)OC(C)(C)C)CC1 [SG5-140-17] | 10% | –
CC(C)(C)OC(=O)N1CCC(NC(=O)c2ccc(C(=O)NC3CCN(C(=O)OC(C)(C)C)CC3)o2)CC1 [SG5-140-18] | −27% | –
CC(C)(C)OC(=O)N1CCC(NC(=O)c2ccc(C(=O)NC3CCN(C(=O)OC(C)(C)C)CC3)nc2)CC1 [SG5-140-19] | 28% | –
CC(C)(C)OC(=O)N1CCC(NC(=O)C2CCC(C(=O)NC3CCN(C(=O)OC(C)(C)C)CC3)CC2)CC1 (stereo not shown) [SG5-140-20] | 28% | –
Cc1cc(C(=O)Nc2ccc(N)c(F)c2)c(C)cc1C(=O)Nc1ccc(N)c(F)c1.Cl [SG5-147-1] | 41% | –
Cl.Nc1ccc(NC(=O)c2ccc(C(=O)Nc3ccc(N)c(F)c3)o2)cc1F [SG5-147-2] | 37% | –
Cl.Cl.Cl.Nc1ccc(NC(=O)c2ccc(C(=O)Nc3ccc(N)c(F)c3)nc2)cc1F [SG5-147-3, (2,5-Bis((4-amino-3-fluorophenyl)carbamoyl)pyridin-1-ium-1-yl)hydridochlorate(I) dihydrochloride] | 50% | –
(2,5-Bis((4-(aminomethyl)phenyl)carbamoyl)pyridin-1-ium-1-yl)hydridochlorate(I) dihydrochloride [SG5-147-11] | 68% | –
